Assay results from patent publication US10940155B2, “Oral quetiapine suspension formulations with extended shelf life and enhanced bioavailability” (TLC THERAPEUTICS, LLC, priority 2017, dated 2021).
Counter-ions that a name gives are not always drawn. Like-named read-outs stand apart in the source and are kept apart here.

Legend:
[1] = due to extensive first-pass metabolism; cited from earlier work

Compound: OCCOCCN1CCN(C2=Nc3ccccc3Sc3ccccc32)CC1 [quetiapine fumarate, 2-[2-(4-dibenzo [b,f][1,4]thiazepin-11-yl-1-piperazinyl)ethoxy]-ethanol fumarate (2:1)]
- solubility (pH 2): 1.499 g/5 ml
- solubility (pH 3): 952.1 mg/5 ml
- oral bioavailability [1]: poor
